Data from patent US11596632B2, “JAK1 pathway inhibitors for the treatment of gastrointestinal disease” (Incyte Corporation, priority 2018, dated 2023).
“Also recorded” adds a separate entry of the source.

Tests used:
[1] = Quantitative autoradioluminography (QARL) of colon sections; assay type: in vitro ADME, human; conditions: ex vivo, 100 and 1000 nM apical, 1 h
Protocol: Intestinal tissue permeation studies were performed using a vertical Ussing diffusion chamber system (Harvard Apparatus, Holliston, Mass.) for healthy tissues. Frozen tissues were thawed to ambient temperature and rinsed with pre-warmed KRB buffer used for dose formulation before being gently placed on the apparatus. Permeation was carried out mucosal-to-serosal at 37° C. for 1 hour with test article in KRB buffer added to the mucosal side. The receiver side of Ussing chamber containing blank KRB buffer was stirred with air bubbles by an aerator. Due to the limited availability of the samples, UC tissues were mounted (mucosal side up) on one end of a polypropylene tube with both ends cut open, and serosal side placed on blank KRB buffer in a vial with a stirring bar. KRB containing the test article was added into the tube and thus the mucosal side of the tissue was exposed to test article during the incubation. After 1 hour incubation at 37° C., samples (100-500 μL) were taken from both donor and receiver side, and then transferred to a 1.5 mL tube for evaluating the permeation. […]
All response curves determined for image analysis calibration were generated using a weighted 1st degree, polynomial, linear equation (1/MDC/mm^2). […]
The LLOQ was determined as 3 times the mean background for each panel. […]

RA patients = experiment: Clinical study in rheumatoid arthritis patients (ACR responses, ANC); assay type: in vivo, human
Protocol: However, the greatest inhibition appeared to be observed following 200 mg BID dosing. Also noteworthy is that the 100 mg QD dose had less TPO induced pSTAT3 inhibition than placebo.

[2] = tested on: TNBS-induced colitis in BALB/c mice; experiment: TNBS-induced colitis model in mice; assay type: in vivo, mouse
Description: Preclinical models of IBD were established in BALB/c mice by intracolonic injection of 2,4,6-trinitrobenzene sulfonic acid (TNBS) or 4-ethoxymethylene-2-phenyl-2-oxazolin-5-one (oxazolone) to trigger an immune response, as described below. Body weight, stool consistency and fecal blood were scored. Additional readouts included colon weight to length ratio and histological evaluation. Blood was collected for pharmacokinetic analysis.
Male BALB/c mice were purchased (Charles River Laboratories) and distal colitis was induced by intracolonic instillation of TNBS (2,4,6-trinitrobenzenesulfonic acid solution, 1 mg in 0.1 mL 50% ethanol). Compound 1 treatment was administered at 30 mg/kg by oral gavage (PO) or 3 mg/kg by intracolonic injection (IC) twice daily (BID). Diarrhea was quantified on a 0-3 rating scale, (0=normal; 1=soft but still formed; 2=very soft; 3=diarrhea) on days 3 to 5 post TNBS sensitization.

N#CCC1(n2cc(-c3ncnc4[nH]ccc34)cn2)CN(C2CCN(C(=O)c3ccnc(C(F)(F)F)c3F)CC2)C1 [Compound 1, {1-{1-[3-Fluoro-2-(trifluoromethyl)isonicotinoyl]piperidin-4-yl}-3-[4-(7H-pyrrolo[2,3-d]pyrimidin-4-yl)-1H-pyrazol-1-yl]azetidin-3-yl}acetonitrile]
penetration into colon tissue layers [1]: penetrated into the mucosal layer and, to a lesser extent, submucosal layer in a concentration dependent manner | ACR20, ACR50, and ACR70 responses versus placebo (RA patients; 600 mg QD, Day 84 visit): statistically significant differences in ACR20, ACR50, and ACR70 responses | decreased ANC (RA patients; RA patients): several cases of decreased ANC but no dose-dependent trend was observed | fecal blood score ([2]; 3 mg/kg IC BID): significant (p<0.05) decrease in fecal blood score | total colonic macroscopic damage ([2]; 3 mg/kg IC BID): ameliorated total colonic macroscopic damage | disease severity / disease recovery ([2]; 3 mg/kg intracolonic BID): significantly reduced disease severity; also recorded: highly efficacious in enhancing disease recovery; also recorded: more rapidly induced recovery; also recorded: highly efficacious in TNBS-induced colitis | disease severity / disease score recovery ([2]; 30 mg/kg PO BID, vs vehicle): significantly reduced disease severity; also recorded: accelerated disease score recovery | stool consistency ([2]; 30 mg/kg PO or 3 mg/kg intracolonic, twice daily, vs control): significantly (p<0.05) improved stool consistency
